According to US9376424B2, “Methods for treating post traumatic stress disorder” (AZEVAN PHARMACEUTICALS, INC., priority 2010, dated 2016):

Experiments:
human V1a receptor = biological target: T1, human V1a receptor (Homo sapiens, UniProt P37288); assay: Human vasopressin V1a receptor binding assay (3H-AVP competition, hV1a cell line); conditions: CHO cells expressing human V1a, 1 nM 3H-AVP; for IC50: read-out: V1a Binding Affinity IC50; for Ki: read-out: V1a Ki
T1 construct: host or cells: CHO cells
T1 sequence (P37288 whole entry): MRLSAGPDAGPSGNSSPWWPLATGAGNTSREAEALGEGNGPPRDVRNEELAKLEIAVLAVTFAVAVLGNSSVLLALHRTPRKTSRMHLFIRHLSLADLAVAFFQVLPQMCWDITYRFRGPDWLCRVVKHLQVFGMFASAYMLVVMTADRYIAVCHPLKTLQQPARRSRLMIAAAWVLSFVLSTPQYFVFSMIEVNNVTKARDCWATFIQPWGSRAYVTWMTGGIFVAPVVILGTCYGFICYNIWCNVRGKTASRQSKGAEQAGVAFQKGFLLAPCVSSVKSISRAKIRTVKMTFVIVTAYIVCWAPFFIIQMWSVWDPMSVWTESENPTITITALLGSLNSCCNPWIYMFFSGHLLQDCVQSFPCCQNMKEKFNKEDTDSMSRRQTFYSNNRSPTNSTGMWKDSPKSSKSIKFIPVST
Description: Human vasopression V1a receptor binding assay. A cell line expressing the human V1a receptor in CHO cells (henceforth referred to as the hV1a cell line) was obtained from Dr. Michael Brownstein, NIMH, Bethesda, Md., USA. The hV1a cDNA sequence is described by Thibonnier et al., Journal of Biological Chemistry, 269, 3304-3310 (1994), and the expression method was the same as described by Morel et al. (1992). The hV1a cell line was grown in alpha-MEM with 10% fetal bovine serum and 250 ug/ml G418 (Gibco, Grand Island, N.Y., USA). For competitive binding assay, hV1a cells were plated into 6-well culture plate at 1:10 dilution from a confluency flask, and maintained in culture for at least two days. Culture medium was then removed, cells were washed with 2 ml binding buffer (25 mM Hepes, 0.25% BSA, 1×DMEM, PH=7.0). To each well, 990 μl binding buffer containing 1 nM 3H-AVP was added, and followed by 10 μl series diluted Example compounds dissolved in DMSO. […] 100 nM cold AVP (Sigma) was used to assess non-specific binding. Cells were incubated for 45 minutes at 37° C., assay mixture was removed and each well was washed three times with PBS (pH=7.4). 1 ml 2% SDS was added per well and plates were let sit for 30 minutes. The whole content in a well was transferred to a scintillation vial. Each well was rinsed with 0.5 ml PBS which was then added to the corresponding vial. Scintillation fluid (Ecoscint, National Diagnostics, Atlanta, Ga.) was then added at 3 ml per vial. Samples were counted in a liquid scintillation counter (Beckman LS3801). IC50 values were calculated by Prism Curve fitting software.
All of the alkanedioic esters and amides exemplified in the foregoing examples dissolved in DMSO were tested in this assay. Binding curves were generated according to methods described by Thibonnier et al. (1994). [^3H]-AVP was added to the hV1a cell cultures followed by 10-fold dilutions of each test compound.

C57B1/6J males = assay: Social Interaction Test after chronic social subjugation; format: in vivo, mouse; conditions: for Distance (traveled in the interaction zone, difference score Post-Pretest) / Time (in the interaction zone, difference score Post-Pretest): mice after 10 day defeat, daily i.p. for 28 days, AVN246-HCl 2 mg/kg, chlordiazepoxide 10 mg/kg
From the text: Mouse Chronic Subordination Model of Depression. Social stress is a factor in the etiology of several psychopathologies, with individuals differing in vulnerability. Adult male mice are subjected to a model of chronic psychosocial stress in which resident/intruder dyads live chronically in sensory contact and physically interact on a daily basis.
Anti-depressant Effect in the Social Interaction Test. […] A rapid subjugation paradigm in mice lead to diminished social interaction behavior, where the dependent measures are distance traveled and time in the Interaction Zone. […] These observations are consistent with the subordination/social interaction model as a rapid behavioral screen for potential antidepressants. Additional details are described in Berton et al. (2006).
Briefly, C57B1/6J males were defeated daily for 10 days by resident, highly aggressive CF-1 males. After 5 minutes of direct exposure, a perforated plastic partition was inserted into the cage that allowed olfactory and visual contact without physical defeat for the remaining 23 hr 55 min each day. The C57 males were exposed to a different resident male in a different cage each day to increase the stress of the procedure (it was observed that all CF-1 males attacked the intruder each day). At the end of the 10 day defeat procedure, the C57 males were tested in an open field apparatus during the dark phase. A dominant male was caged in an area of the open field apparatus termed the “social interaction zone.” Time and distance traveled in the zone were recorded. The C57 males were then divided randomly among the following treatments: AVN246-HCl (2 mg/kg), saline vehicle (0.45%), or chlordiazepoxide (10 mg/kg). Treatments were given daily (i.p.) for 28 days and the animals were retested. Behavioral changes were determined by calculating difference scores (Post-Pretest) and these scores were analyzed.

`O=C(CCC(C(=O)NCc1cccc(C(F)(F)F)c1)N1C(=O)C(N2C(=O)OCC2c2ccccc2)C1C=Cc1ccccc1)NCCN1CCCCC1` (stereo not shown) [Example 87] was tested. Which IC50 (human V1a receptor) did it give?
Its IC50 is 15 nM.

For `CN(Cc1cccc(C(F)(F)F)c1)C(=O)[C@@H](CC(=O)N1CCC(N2CCCCC2)CC1)N1C(=O)[C@@H](N2C(=O)OC[C@@H]2c2ccccc2)[C@H]1/C=C/c1cccc(Cl)c1` [Example 247], which IC50 (human V1a receptor) is on record?
Its IC50 is 0.6 nM.

And the Ki (human V1a receptor)?
The Ki was 0.39 nM.

`O=C(N[C@@H]1CCCc2ccccc21)[C@H](CCC(=O)N1CCN(C2CCCCC2)CC1)N1C(=O)[C@@H](N2C(=O)OC[C@@H]2c2ccccc2)[C@H]1/C=C/c1ccco1` [Example 254] was tested. Which IC50 (human V1a receptor) did it give?
Its IC50 is 10 nM.

What about the Ki (human V1a receptor) of the same compound?
Its Ki is 6.2 nM.

`CNC1=Nc2ccc(Cl)cc2C(c2ccccc2)=[N+]([O-])C1` [CDP, chlordiazepoxide] was tested. Which “Distance (traveled in the interaction zone, difference score Post-Pretest)” value (C57B1/6J males) did it give?
The value was 1.0 ± 5.

And the “Time (in the interaction zone, difference score Post-Pretest)” value (C57B1/6J males)?
Its value is 0.0 ± 5^.

Which IC50 (human V1a receptor) does the source give for `CC(C(=O)NCc1cccc(C(F)(F)F)c1)(C(=O)N1CCC(N2CCCCC2)CC1)N1C(=O)[C@@H](N2C(=O)OC[C@@H]2c2ccccc2)[C@H]1/C=C/c1ccccc1` (mixture of isomers) [Example 234, (2RS)-[4-(piperidinyl)piperidinylcarbonyl]-2-methyl-2-[3(S)-(4(S)-phenyloxazolidin-2-on-3-yl)-4(R)-(2-styryl)azetidin-2-on-1-yl]acetic acid N-(3-trifluoromethylbenzyl)amide] here?
Its IC50 is 2.37 nM.

What about the Ki (human V1a receptor) of the same compound?
Its Ki is 1.45 nM.

For `O=C(NCc1cccc(C(F)(F)F)c1)C(CC(=O)N1CCN(CCN2CCCC2)CC1)N1C(=O)C(N2C(=O)OCC2c2ccccc2)C1C=Cc1ccccc1` (stereo not shown) [Example 78], which IC50 (human V1a receptor) is on record?
Its IC50 is < 100 nM.

`O=C(NCc1cc(C(F)(F)F)ccc1F)[C@H](CCC(=O)N1CCN(C2CCCCC2)CC1)N1C(=O)[C@@H](N2C(=O)OC[C@@H]2c2ccccc2)[C@H]1/C=C/c1ccccc1` [Example 177] was tested. Which Ki (human V1a receptor) did it give?
Its Ki is 0.41 nM.

Which Ki (human V1a receptor) does the source give for `O=C(NCc1cccc(Cl)c1Cl)[C@H](CCC(=O)N1CCN(C2CCCCC2)CC1)N1C(=O)[C@@H](N2C(=O)OC[C@@H]2c2ccccc2)[C@H]1/C=C/c1ccccc1` [Example 176] here?
The Ki was 0.38 nM.

Which Ki (human V1a receptor) does the source give for `O=C(NCc1cccc(Cl)c1)[C@H](CCC(=O)N1CCN(C2CCCCC2)CC1)N1C(=O)[C@@H](N2C(=O)OC[C@@H]2c2ccccc2)[C@H]1/C=C/c1ccccc1` [Example 187] here?
Its Ki is 0.66 nM.

Which IC50 (human V1a receptor) does the source give for `CCCCN(Cc1ccccc1)C(=O)[C@H](CCC(=O)N1CCN(C2CCCCC2)CC1)N1C(=O)[C@@H](N2C(=O)OC[C@@H]2c2ccccc2)[C@H]1/C=C/c1ccccc1` [Example 198] here?
Its IC50 is ~100 nM.

For `O=C(C(COCc1ccccc1)N1C(=O)C(N2C(=O)OCC2c2ccccc2)C1C=Cc1ccccc1)N1CCC(CN2CCCCC2)CC1` (stereo not shown) [Example 233A], which Ki (human V1a receptor) is on record?
The Ki was 11.6 nM.

With `O=C(NCc1cccc(C(F)(F)F)c1)[C@H](CCC(=O)N1CCN(C2CCCCC2)CC1)N1C(=O)[C@@H](N2C(=O)OC[C@@H]2c2ccccc2)[C@H]1/C=C/c1ccccc1` [Example 120H] as the compound, how does the IC50 (human V1a receptor) read?
Its IC50 is 2.75 nM.

What about the Ki (human V1a receptor) of the same compound?
The Ki was 1.68 nM.

What does the source list for `O=C(N[C@@H]1CCCc2ccccc21)[C@H](CCC(=O)N1CCN(C2CCCCC2)CC1)N1C(=O)[C@@H](N2C(=O)OC[C@@H]2c2ccccc2)[C@H]1/C=C/c1cccs1` [Example 255]?
IC50 (human V1a receptor): 1.9 nM; Ki (human V1a receptor): 1.2 nM

`O=C(NCc1cccc(C(F)(F)F)c1)[C@H](CCC(=O)N1CCC(CN2CCCCC2)CC1)N1C(=O)[C@@H](N2C(=O)OC[C@@H]2c2ccccc2)[C@H]1/C=C/c1ccccc1` [Example 120E] was tested. Which IC50 (human V1a receptor) did it give?
Its IC50 is 3.2 nM.

What about the Ki (human V1a receptor) of the same compound?
The Ki was 1.95 nM.

What does the source list for `O=C(NCc1cc(Cl)cc(Cl)c1)[C@H](CCC(=O)N1CCN(C2CCCCC2)CC1)N1C(=O)[C@@H](N2C(=O)OC[C@@H]2c2ccccc2)[C@H]1/C=C/c1ccccc1` [Example 185]?
IC50 (human V1a receptor): 1.27 nM; Ki (human V1a receptor): 0.82 nM

For `CC(NC(=O)C(CC(=O)N1CCC(N2CCCCC2)CC1)N1C(=O)C(N2C(=O)OCC2c2ccccc2)C1C=Cc1ccccc1)c1ccccc1.Cl` (stereo not shown) [AVN246-HCl], which “Distance (traveled in the interaction zone, difference score Post-Pretest)” value (C57B1/6J males) is on record?
Its value is 22 ± 6.

What about the “Time (in the interaction zone, difference score Post-Pretest)” value (C57B1/6J males) of the same compound?
The value was 35 ± 10.

What about the “effect on deficits in social interaction produced by chronic subordination” value (C57B1/6J males; mice, 28-day treatment regimen) of the same compound?
Its value is “significantly increased both distance traveled and time in the interaction zone”.

How did the Ki (human V1a receptor) turn out when `O=C(NCc1cc(C(F)(F)F)cc(C(F)(F)F)c1)[C@H](CCC(=O)N1CCN(C2CCCCC2)CC1)N1C(=O)[C@@H](N2C(=O)OC[C@@H]2c2ccccc2)[C@H]1/C=C/c1ccccc1` [Example 188] was run?
The Ki was 4.45 nM.

`O=C(NCc1cc(F)cc(C(F)(F)F)c1)[C@H](CCC(=O)N1CCN(C2CCCCC2)CC1)N1C(=O)[C@@H](N2C(=O)OC[C@@H]2c2ccccc2)[C@H]1/C=C/c1ccccc1` [Example 179] was tested. Which Ki (human V1a receptor) did it give?
The Ki was 0.51 nM.

For `O=C(NCc1ccccc1C(F)(F)F)[C@H](CCC(=O)N1CCN(C2CCCCC2)CC1)N1C(=O)[C@@H](N2C(=O)OC[C@@H]2c2ccccc2)[C@H]1/C=C/c1ccccc1` [Example 182], which Ki (human V1a receptor) is on record?
Its Ki is 0.93 nM.

Which results are given for `C[C@@H](NC(=O)[C@@H](CC(=O)N1CCC(N2CCCCC2)CC1)N1C(=O)[C@@H](N2C(=O)OC[C@@H]2c2cccc(Cl)c2)[C@H]1/C=C/c1ccccc1)c1ccccc1` [Example 256]?
IC50 (human V1a receptor): 2.8 nM; Ki (human V1a receptor): 1.7 nM

How did the Ki (human V1a receptor) turn out when `O=C(NCc1cccc(C(F)(F)F)c1F)[C@H](CCC(=O)N1CCN(C2CCCCC2)CC1)N1C(=O)[C@@H](N2C(=O)OC[C@@H]2c2ccccc2)[C@H]1/C=C/c1ccccc1` [Example 180] was run?
The Ki was 0.2 nM.

How did the IC50 (human V1a receptor) turn out when `O=C(NC1CCc2ccccc21)C(CCC(=O)N1CCN(C2CCCCC2)CC1)N1C(=O)C(N2C(=O)OCC2c2ccccc2)C1C=Cc1ccccc1` (mixture of isomers) [Example 216] was run?
The IC50 was 1.83 nM.

And the Ki (human V1a receptor)?
Its Ki is 1.12 nM.
